How the values were obtained:
Assay type in all cases: functional
Gossypium hirsutum [1] = assay: Increase of seed cotton yield in Gossypium hirsutum (cotton) at 2.88 kg a.i./ha sprayed at 2 to 3 days before sowing without seedbed preparation measured during harvest time
Gossypium hirsutum [2] = assay: Increase of boll weight in Gossypium hirsutum (cotton) at 2.88 kg a.i./ha sprayed at 2 to 3 days before sowing without seedbed preparation measured during harvest time
Gossypium hirsutum [3] = assay: Increase of plant height in Gossypium hirsutum (cotton) at 2.88 kg a.i./ha sprayed at 2 to 3 days before sowing without seedbed preparation measured during harvest time
Gossypium hirsutum [4] = assay: Increase of cotton cover in Gossypium hirsutum (cotton) at 2.88 kg a.i./ha sprayed at 2 to 3 days before sowing without seedbed preparation measured 2 weeks after emergence
Gossypium hirsutum [5] = assay: Increase of seed cotton yield in Gossypium hirsutum (cotton) at 2.88 kg a.i./ha as pre-emergence treatment 3 to 4 days after sowing with seedbed preparation measured during harvest time
Gossypium hirsutum [6] = assay: Increase of boll weight in Gossypium hirsutum (cotton) at 2.88 kg a.i./ha as pre-emergence treatment 3 to 4 days after sowing with seedbed preparation measured during harvest time
Gossypium hirsutum [7] = assay: Increase of plant height in Gossypium hirsutum (cotton) at 2.88 kg a.i./ha as pre-emergence treatment 3 to 4 days after sowing with seedbed preparation measured during harvest time
Gossypium hirsutum [8] = assay: Increase of cotton cover in Gossypium hirsutum (cotton) at 2.88 kg a.i./ha as pre-emergence treatment 3 to 4 days after sowing with seedbed preparation measured 2 weeks after emergence
Gossypium hirsutum [9] = assay: Increase of seed cotton yield in Gossypium hirsutum (cotton) at 2.88 kg a.i./ha as pre-emergence treatment 3 to 4 days after sowing without seedbed preparation measured during harvest time
Gossypium hirsutum [10] = assay: Increase of boll weight in Gossypium hirsutum (cotton) at 2.88 kg a.i./ha as pre-emergence treatment 3 to 4 days after sowing without seedbed preparation measured during harvest time
Gossypium hirsutum [11] = assay: Increase of plant height in Gossypium hirsutum (cotton) at 2.88 kg a.i./ha as pre-emergence treatment 3 to 4 days after sowing without seedbed preparation measured during harvest time
Gossypium hirsutum [12] = assay: Increase of cotton cover in Gossypium hirsutum (cotton) at 2.88 kg a.i./ha as pre-emergence treatment 3 to 4 days after sowing without seedbed preparation measured 2 weeks after emergence

For `O=C(O)CNCP(=O)(O)O` [GLYPHOSATE], which Crop_yield (Gossypium hirsutum [1]) is on record?
Its Crop_yield is 6 tons/ha.

What about the Activity (Gossypium hirsutum [2]) of the same molecule?
Its Activity is 5.2 g.

And the Activity (Gossypium hirsutum [3])?
The Activity was 90.7 cm.

What about the Activity (Gossypium hirsutum [4]) of the same molecule?
Its Activity is 11.7%.

And the Crop_yield (Gossypium hirsutum [5])?
Its Crop_yield is 4.8 tons/ha.

And the Activity (Gossypium hirsutum [6])?
The Activity was 4.3 g.

And the Activity (Gossypium hirsutum [7])?
Its Activity is 91.5 cm.

What about the Activity (Gossypium hirsutum [8]) of the same molecule?
Its Activity is 7%.

What about the Crop_yield (Gossypium hirsutum [9]) of the same molecule?
The Crop_yield was 5.5 tons/ha.

What about the Activity (Gossypium hirsutum [10]) of the same molecule?
The Activity was 5.9 g.

What about the Activity (Gossypium hirsutum [11]) of the same molecule?
Its Activity is 91.1 cm.

And the Activity (Gossypium hirsutum [12])?
The Activity was 16.3%.

— ChEMBL document CHEMBL3044868, “Effect of pre-sowing and pre-emergence glyphosate applications on weedsin stale seedbed cotton” (2009)
